US4677105A, “2-alkoxycarbonylalkyl-3-oxo-5,6-diaryl-as-triazines having utility as therapeutics” (PF Medicament, priority 1985, dated 1987)
Read-outs that look alike come from different tables or passages of the source.

What was measured:
[1] = tested on: phenyl benzoquinone contortion; assay: phenyl benzoquinone contortion test (analgesic properties); assay type: in vivo, mouse; conditions: 0.5 h
Protocol: The activity in the phenyl benzoquinone contortion test of […] et al., J. Pharm. Exptl. […] Dose expressed in mg/kg in the mouse, 30 minutes before intraperitoneal injection of the algogenic agent. The results are expressed in percentage variation of the number of contortions.

solubility = assay type: physicochemical; conditions: in words
[2] = analgesic activity, test not specified; assay type: in vivo; conditions: in words
[3] = mouse, oral, 30 minutes before intraperitoneal injection of the algogenic agent, read-out: ED50

Row | Structure (SMILES) | ED50 [1, 3] | solubility (insoluble in) (solubility) | solubility (soluble in) (solubility) | analgesic activity [2] | ED50 ([1]; Mus musculus, po)
1 | CCOC(=O)C(C)n1nc(-c2ccc(OC)cc2)c(-c2ccc(OC)cc2)nc1=O (centres unmarked) [Example 3, 2-(1-ethoxycarbonyl-1-ethyl)-3-oxo-5,6-di(paramethoxyphenyl)-as-triazine] | 13 mg/kg | Insoluble in water, dilute bases and acids | Soluble in hot alcohols, benzene, chloroform, methylene chloride and ether |  | 
2 | CCOC(=O)C(C)n1nc(-c2ccccc2)c(-c2ccccc2)nc1=O (centres unmarked) [Example 7, 2-(1-ethoxycarbonyl-1-ethyl)-3-oxo-5,6-di (phenyl)-as-triazine] | 18 mg/kg |  |  | effective analgesic agent | 
3 | CCOC(=O)Cn1nc(-c2ccc(OC)cc2)c(-c2ccc(OC)cc2)nc1=O [Example 1, 2-ethoxy carbonyl-methyl-3-oxo-5,6-di(paramethoxyphenyl)-as-triazine] |  | Insoluble in water, dilute bases and acids | Soluble in methylene chloride, chloroform, ether; alcohols and hot benzene |  | 
4 | CC(=O)Oc1ccccc1C(=O)O [Aspirin, reference compound] |  |  |  |  | 100 mg/kg
5 | CCCC(C(=O)OCC)n1nc(-c2ccc(OC)cc2)c(-c2ccc(OC)cc2)nc1=O (centres unmarked) [Example 5, 2-(1-ethoxycarbonyl-1-butyl)-3-oxo-5,6-di(paramethoxyphenyl)-as-triazine] | 16 mg/kg | Insoluble in water, dilute bases and acids | Soluble in hot alcohols, benzene, methylene chloride, chloroform, ether |  | 
6 | CCOC(=O)C(C)n1nc(-c2ccc(C)cc2)c(-c2ccc(C)cc2)nc1=O (centres unmarked) [Example 8, 2-(1-ethoxycarbonyl-1-ethyl)-3-oxo-5,6-di(p-methylphenyl)-as-triazine] | 12 mg/kg |  |  | effective analgesic agent | 
7 | O=C(OCC(O)CO)c1ccccc1Nc1ccnc2cc(Cl)ccc12 (centres unmarked) [Glaphenine, reference compound] | 35 mg/kg |  |  |  | 
8 | CCOC(=O)C(C)n1nc(-c2ccc(OC)cc2)c(-c2ccc(Cl)cc2)nc1=O (centres unmarked) [Example 10, 2-(1-ethoxycarbonyl-1-ethyl)-3-oxo-5,6-(p-chloro-p-methoxy)-5,6-as-triazine] | 12 mg/kg |  |  | effective analgesic agent | 
9 | CCOC(=O)C(CC)n1nc(-c2ccc(OC)cc2)c(-c2ccc(OC)cc2)nc1=O (centres unmarked) [Example 4, 2-(1-ethoxycarbonyl-1-propyl)-3-oxo-5,6-di(paramethoxyphenyl)-as-triazine] | 11 mg/kg | Insoluble in water, dilute bases and acids, ether | Soluble in hot alcohols, benzene, methylene chloride, chloroform |  | 
10 | CCOC(=O)C(C)n1nc(-c2ccc(Cl)cc2)c(-c2ccc(Cl)cc2)nc1=O (centres unmarked) [Example 9, 2-(1-ethoxycarbonyl-1-ethyl)-3-oxo-5,6-di (p-chlorophenyl)-as-triazine] | 10 mg/kg |  |  | effective analgesic agent | 
11 | COC(=O)C(C)n1nc(-c2ccc(OC)cc2)c(-c2ccc(OC)cc2)nc1=O (centres unmarked) [Example 6, 2-(1-methoxycarbonylethyl)-3-oxo-5,6-di(paramethoxyphenyl)-as-triazine] | 12 mg/kg | Insoluble: Water, ether | Soluble in hot alcohols |  | 
12 | CCOC(=O)C(C)n1nc(-c2ccc(O)cc2)c(-c2ccc(O)cc2)nc1=O (centres unmarked) [Example 2, 2-(1-ethoxycarbonyl-1-ethyl)-3-oxo-5,6-di(parahydroxyphenyl)-as-triazine] |  | Insoluble in water, dilute bases and acids, benzene, chloroform, methylene chloride, ether | Soluble in hot alcohols |  | 
